Laboratory results from ChEMBL document CHEMBL1154993, “A cyclohexanonyl bromophenol from the red alga Symphyocladia latiuscula” (J Nat Prod, 2000).
pIC50: −log10 of the molar value.

System: Radical scavenging activity
Assay: Antioxidant activity assessed as DPPH radical scavenging activity after 30 mins by spectrophotometer
Type: functional

SMILES	pIC50
OCc1c(Br)c(O)c(O)c(Br)c1Br	5.12
O=C1O[C@H]([C@@H](O)CO)C(O)=C1O [ASCORBIC ACID]	4.82
O=C1CCCC[C@@H]1Cc1c(Br)c(O)c(O)c(Br)c1Br [SYMPHYOKETONE]	5.07
